From publication PMC9127750, “Structure-based design of CDC42 effector interaction inhibitors for the treatment of cancer” (Cell reports, 2022)
Where “and” joins values, the source holds several entries; their conditions need not be identical. Equal values may be shown once.

Tested on: WM3248 melanoma cells, 486 antibodies
Assay: Reverse phase protein arrays (RPPA)
Assay type: cell-based, Human
Settings: normalized to 0
Excerpt: Pellets were snap frozen in liquid nitrogen and shipped to MD Anderson Cancer Center core RPPA facility for RPPA analysis (Table S5). Three biological replicates for each sample were generated.
Nomenclatures on the RPPA heatmaps: name_of_antibody.species_of_antibody.status_of_antibody. V - antibody validated; C - validation of antibody in progress; Q - antibody nonspecific; E – under evaluation; antibodies raised in M - mouse, G - goat, R - rabbit, or T - rat.

Structure (SMILES): CN(C)c1cccc(Nc2cc(-c3ccccc3)nc(C3CCNCC3)n2)c1 [ARN22089, N1,N1-dimethyl-N3-(6-phenyl-2-(piperidin-4-yl)pyrimidin-4-yl)benzene-1,3-diamine]
- EMA.M.C Norm_5 Average (5, average): 0.850
- ENY2.M.C Norm_5 Average (5, average): 0.965
- ER.a.R.V Norm_5 Average (5, average): 1.001
- ERCC1.R.C Norm_5 Average (5, average): 0.948
- ERCC5.R.C Norm_5 Average (5, average): 1.084
- ERRalpha.R.V Norm_5 Average (5, average): 0.950
- EVI1.R.V Norm_5 Average (5, average): 0.922
- Elk1_pS383.R.C Norm_5 Average (5, average): 1.032
- Enolase.1.R.V Norm_5 Average (5, average): 1.052
- Enolase.2.R.V Norm_5 Average (5, average): 0.966
- EphA2.R.V Norm_5 Average (5, average): 0.884
- EphA2_pS897.R.C Norm_5 Average (5, average): 0.843
- EphA2_pY588.R.C Norm_5 Average (5, average): 0.929
- Erk5.R.V Norm_5 Average (5, average): 1.026
- FABP5.R.C Norm_5 Average (5, average): 0.959
- FAK.R.C Norm_5 Average (5, average): 0.977
- FAK_pY397.R.V Norm_5 Average (5, average): 0.931
- FANCD2.R.V Norm_5 Average (5, average): 0.930
- FASN.R.V Norm_5 Average (5, average): 1.111
- FGF.basic.R.C Norm_5 Average (5, average): 0.987
- FN14.R.C Norm_5 Average (5, average): 1.118
- FOXM1.R.V Norm_5 Average (5, average): 0.915
- FOXO3.R.V Norm_5 Average (5, average): 1.012
- FRS2.alpha_pY196.R.V Norm_5 Average (5, average): 0.996
- FTO.R.V Norm_5 Average (5, average): 1.020
- Fibronectin.R.V Norm_5 Average (5, average): 1.193
- FoxO3a_pS318_S321.R.C Norm_5 Average (5, average): 0.972
- G6PD.R.V Norm_5 Average (5, average): 0.950
- GATA3.M.V Norm_5 Average (5, average): 1.077
- GATA6.R.V Norm_5 Average (5, average): 0.971
- GCLM.R.V Norm_5 Average (5, average): 0.967
- GCN5L2.R.V Norm_5 Average (5, average): 1.021
- GGPS1.M.V Norm_5 Average (5, average): 0.977
- GRB2.R.V Norm_5 Average (5, average): 1.022
- GRB7.R.V Norm_5 Average (5, average): 0.976
- GSK.3a.b.M.V Norm_5 Average (5, average): 0.937
- GSK.3a.b_pS21_S9.R.V Norm_5 Average (5, average): 1.111
- Gab2.R.V Norm_5 Average (5, average): 1.100
- Gli1.R.C Norm_5 Average (5, average): 0.999
- Gli3.R.C Norm_5 Average (5, average): 1.056
- Glucocorticoid.Receptor.R.V Norm_5 Average (5, average): 1.053
- Glutamate.D1.2.R.V Norm_5 Average (5, average): 0.990
- Grp75.R.C Norm_5 Average (5, average): 1.021
- Gys.R.V Norm_5 Average (5, average): 0.987
- Gys_pS641.R.V Norm_5 Average (5, average): 0.978
- H2AX_pS139.R.C Norm_5 Average (5, average): 1.026
- H2AX_pS140.M.C Norm_5 Average (5, average): 0.967
- HER2.M.V Norm_5 Average (5, average): 0.971
- HER2_pY1248.R.V Norm_5 Average (5, average): 1.023
- HER3.R.V Norm_5 Average (5, average): 0.924
- HER3_pY1289.R.C Norm_5 Average (5, average): 1.060
- HES1.R.V Norm_5 Average (5, average): 1.168
- eEF2.R.C Norm_5 Average (5, average): 1.217
- eEF2K.R.V Norm_5 Average (5, average): 1.024
- eIF4E.R.V Norm_5 Average (5, average): 1.028
- eIF4E_pS209.R.V Norm_5 Average (5, average): 0.945
- DNMT1.R.V Norm_5 (5, replicates 1-3): 0.988 and 0.998 and 1.098
- DRP1.R.V Norm_5 (5, replicates 1-3): 0.998 and 1.001
- DUSP4.R.V Norm_5 (5, replicates 1-3): 1.082 and 1.118 and 1.119
- DUSP6.R.C Norm_5 (5, replicates 1-3): 1.285 and 1.005 and 1.269
- DYRK1B.R.C Norm_5 (5, replicates 1-3): 0.880 and 0.877 and 1.004
- Dvl3.R.V Norm_5 (5, replicates 1-3): 0.981 and 1.018 and 0.968
- E2F1.R.V Norm_5 (5, replicates 1-3): 0.990 and 0.958 and 0.964
- E.Cadherin.R.V Norm_5 (5, replicates 1-3): 0.812 and 0.783 and 0.958
- EGFR.R.V Norm_5 (5, replicates 1-3): 0.998 and 1.139 and 0.952
- EGFR_pY1068.R.C Norm_5 (5, replicates 1-3): 0.901 and 0.903 and 1.000
- EGFR_pY1173.R.V Norm_5 (5, replicates 1-3): 1.024 and 1.026 and 1.016
- EMA.M.C Norm_5 (5, replicates 1-3): 0.673 and 0.895 and 0.983
- ENY2.M.C Norm_5 (5, replicates 1-3): 0.935 and 1.052 and 0.908
- ER.a.R.V Norm_5 (5, replicates 1-3): 0.980 and 1.004 and 1.018
- ER.a_pS118.R.V Norm_5 (5, replicates 1-3): 1.247
- ERCC1.R.C Norm_5 (5, replicates 1-3): 0.895 and 0.962 and 0.988
- ERCC5.R.C Norm_5 (5, replicates 1-3): 1.145
- ERRalpha.R.V Norm_5 (5, replicates 1-3): 0.932 and 0.933 and 0.985
- EVI1.R.V Norm_5 (5, replicates 1-3): 0.871 and 0.956 and 0.940
- Elk1_pS383.R.C Norm_5 (5, replicates 1-3): 1.029
- Enolase.1.R.V Norm_5 (5, replicates 1-3): 1.006 and 1.195 and 0.954
- Enolase.2.R.V Norm_5 (5, replicates 1-3): 0.936 and 1.012
- EphA2.R.V Norm_5 (5, replicates 1-3): 0.843 and 0.933 and 0.875
- EphA2_pS897.R.C Norm_5 (5, replicates 1-3): 0.767 and 0.950 and 0.814
- EphA2_pY588.R.C Norm_5 (5, replicates 1-3): 0.881 and 0.946 and 0.960
- Erk5.R.V Norm_5 (5, replicates 1-3): 0.987 and 1.054
- Ets.1.R.V Norm_5 (5, replicates 1-3): 1.139 and 1.226 and 0.851
- FABP5.R.C Norm_5 (5, replicates 1-3): 1.017 and 1.210 and 0.650
- FAK.R.C Norm_5 (5, replicates 1-3): 0.898 and 1.113 and 0.922
- FAK_pY397.R.V Norm_5 (5, replicates 1-3): 0.881 and 0.907 and 1.006
- FANCD2.R.V Norm_5 (5, replicates 1-3): 0.905 and 0.913 and 0.972
- FASN.R.V Norm_5 (5, replicates 1-3): 1.237 and 1.011 and 1.085
- FGF.basic.R.C Norm_5 (5, replicates 1-3): 0.849
- FN14.R.C Norm_5 (5, replicates 1-3): 1.117 and 1.165
- FOXM1.R.V Norm_5 (5, replicates 1-3): 0.776 and 0.924 and 1.046
- FOXO3.R.V Norm_5 (5, replicates 1-3): 0.964 and 1.056 and 1.017
- FRS2.alpha_pY196.R.V Norm_5 (5, replicates 1-3): 0.883 and 1.011
- FTO.R.V Norm_5 (5, replicates 1-3): 1.133 and 0.883
- Fibronectin.R.V Norm_5 (5, replicates 1-3): 1.256 and 1.230
- FoxO3a_pS318_S321.R.C Norm_5 (5, replicates 1-3): 0.972 and 1.006
- G6PD.R.V Norm_5 (5, replicates 1-3): 0.921 and 1.016 and 0.913
- GATA3.M.V Norm_5 (5, replicates 1-3): 1.233 and 0.961
- GATA6.R.V Norm_5 (5, replicates 1-3): 0.980 and 0.952 and 0.979
- GCLC.R.C Norm_5 (5, replicates 1-3): 1.128 and 0.940
- GCLM.R.V Norm_5 (5, replicates 1-3): 0.953 and 1.003
- GCN5L2.R.V Norm_5 (5, replicates 1-3): 0.975 and 1.052
- GGPS1.M.V Norm_5 (5, replicates 1-3): 0.942
- GRB2.R.V Norm_5 (5, replicates 1-3): 0.966 and 1.023 and 1.076
- GRB7.R.V Norm_5 (5, replicates 1-3): 1.030 and 0.936 and 0.962
- GSK.3B.R.C Norm_5 (5, replicates 1-3): 0.980 and 1.031 and 1.125
- GSK.3a.b.M.V Norm_5 (5, replicates 1-3): 1.010 and 0.971 and 0.830
- GSK.3a.b_pS21_S9.R.V Norm_5 (5, replicates 1-3): 1.277 and 1.230
- Gab2.R.V Norm_5 (5, replicates 1-3): 1.236 and 1.059 and 1.006
- Gli1.R.C Norm_5 (5, replicates 1-3): 0.936 and 0.961 and 1.099
- Gli3.R.C Norm_5 (5, replicates 1-3): 1.128 and 1.124 and 0.916
- Glucocorticoid.Receptor.R.V Norm_5 (5, replicates 1-3): 1.063 and 1.061 and 1.034
- Glutamate.D1.2.R.V Norm_5 (5, replicates 1-3): 1.128 and 0.932
- Glutaminase.R.C Norm_5 (5, replicates 1-3): 1.249 and 0.891
- Granzyme.B.R.V Norm_5 (5, replicates 1-3): 1.216 and 0.936
- Grp75.R.C Norm_5 (5, replicates 1-3): 0.988 and 1.124 and 0.950
- Gys.R.V Norm_5 (5, replicates 1-3): 0.964 and 0.981 and 1.016
- Gys_pS641.R.V Norm_5 (5, replicates 1-3): 1.014 and 0.854
- H2AX_pS139.R.C Norm_5 (5, replicates 1-3): 1.023 and 1.013
- H2AX_pS140.M.C Norm_5 (5, replicates 1-3): 0.966 and 1.110 and 0.827
- HER2.M.V Norm_5 (5, replicates 1-3): 0.993 and 0.940 and 0.980
- HER2_pY1248.R.V Norm_5 (5, replicates 1-3): 0.876 and 1.016
- HER3.R.V Norm_5 (5, replicates 1-3): 0.898 and 0.946 and 0.928
- HER3_pY1289.R.C Norm_5 (5, replicates 1-3): 1.034 and 1.212 and 0.933
- HES1.R.V Norm_5 (5, replicates 1-3): 1.299 and 1.047 and 1.158
- Heregulin.R.V Norm_5 (5, replicates 1-3): 1.014 and 1.131 and 1.059
- eEF2.R.C Norm_5 (5, replicates 1-3): 1.519 and 1.622 and 0.509
- eEF2K.R.V Norm_5 (5, replicates 1-3): 1.078 and 1.168
- eIF4E.R.V Norm_5 (5, replicates 1-3): 0.986 and 1.010
- eIF4E_pS209.R.V Norm_5 (5, replicates 1-3): 0.988 and 0.981
- eIF4G.R.C Norm_5 (5, replicates 1-3): 1.060 and 1.058 and 1.164
- DNMT1.R.V Norm_10 Average (10, average): 1.056
- DRP1.R.V Norm_10 Average (10, average): 0.998
- DUSP4.R.V Norm_10 Average (10, average): 0.891
- DUSP6.R.C Norm_10 Average (10, average): 1.050
- DYRK1B.R.C Norm_10 Average (10, average): 0.948
- Dvl3.R.V Norm_10 Average (10, average): 0.962
- E2F1.R.V Norm_10 Average (10, average): 1.083
- E.Cadherin.R.V Norm_10 Average (10, average): 0.939
- EGFR.R.V Norm_10 Average (10, average): 0.975
- EGFR_pY1068.R.C Norm_10 Average (10, average): 0.957
- EMA.M.C Norm_10 Average (10, average): 0.953
- ER.a.R.V Norm_10 Average (10, average): 0.921
- ERCC5.R.C Norm_10 Average (10, average): 0.962
- ERRalpha.R.V Norm_10 Average (10, average): 1.014
- EVI1.R.V Norm_10 Average (10, average): 1.011
- Elk1_pS383.R.C Norm_10 Average (10, average): 0.998
- Enolase.1.R.V Norm_10 Average (10, average): 1.160
- EphA2.R.V Norm_10 Average (10, average): 0.919
- EphA2_pS897.R.C Norm_10 Average (10, average): 0.866
- EphA2_pY588.R.C Norm_10 Average (10, average): 0.941
- Erk5.R.V Norm_10 Average (10, average): 0.877
- Ets.1.R.V Norm_10 Average (10, average): 1.306
- FABP5.R.C Norm_10 Average (10, average): 1.237
- FAK.R.C Norm_10 Average (10, average): 0.954
- FANCD2.R.V Norm_10 Average (10, average): 0.930
- FASN.R.V Norm_10 Average (10, average): 0.962
- FGF.basic.R.C Norm_10 Average (10, average): 0.946
- FOXM1.R.V Norm_10 Average (10, average): 0.929
- FOXO3.R.V Norm_10 Average (10, average): 1.081
- FRS2.alpha_pY196.R.V Norm_10 Average (10, average): 1.373
- FTO.R.V Norm_10 Average (10, average): 1.099
- Fibronectin.R.V Norm_10 Average (10, average): 1.015
